This is an account of results in US6656956B2, “Benzimidazole derivatives, processes for preparing them and their use as pharmaceutical compositions” (Boehringer Ingelheim Pharma KG, priority 2001, dated 2003).

Where a name gives a salt, the structure may show the parent alone.

In this assay the target is T1, rh beta tryptase (Homo sapiens, UniProt Q15661).
T1 construct: purchased Promega
T1 sequence (Q15661 31-275): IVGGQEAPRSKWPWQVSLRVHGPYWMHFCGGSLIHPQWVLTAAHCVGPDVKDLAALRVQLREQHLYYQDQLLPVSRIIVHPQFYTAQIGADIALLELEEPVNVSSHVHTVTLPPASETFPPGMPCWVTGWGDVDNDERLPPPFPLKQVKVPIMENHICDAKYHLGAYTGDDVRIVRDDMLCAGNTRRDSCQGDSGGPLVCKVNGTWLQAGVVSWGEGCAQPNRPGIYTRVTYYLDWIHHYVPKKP
The assay can be described thus: tryptase inhibition in vitro test (cleavage of N-p-tosyl-Gly-Pro-Lys-para-nitroaniline, p-nitroaniline measured at 405 nm). Format: biochemical. As to conditions: rh beta tryptase 0.91 U/ml, substrate 0.6 mM, Tris HCl buffer with calcium and heparin, pH 7.4, 37° C., 5 minutes incubation; read-out: Tryptase-inhibiting activity. The method, boiled down:
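Chromogenic assay in 100 mM Tris HCl pH 7.4 with 5 mM calcium and […], 0.91 U/ml enzyme, 0.6 mM substrate. Compound preincubated 5 min, then p-nitroaniline at 405 nm after 5 min, 37° C. Screening at 10 μM as % inhibition; IC50 determined when inhibition exceeded 70%.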
Turning to `CN(C(=O)CN1CCC(Nc2cccc(Cl)c2)CC1)c1ccc2c(c1)nc(CCc1ccc(C(=N)N)cc1)n2C` [Example 106, N-{2-[2-(4-Amidinophenyl)-ethyl]-1-methyl-benzimidazol-5-yl}-N-methyl-2-[4-(3-chlorophenylamino)-piperid-1-yl]-acetamide, dihydrochloride], the IC50 lay in the range of 0.5 to 3 nM. For `CN(C(=O)CN1CCC(Nc2ccc(Cl)c(Cl)c2)CC1)c1ccc2c(c1)nc(CCc1ccc(C(=N)N)cc1)n2C` [Example 107, N-{2-[2-(4-Amidinophenyl)-ethyl]-1-methyl-benzimidazol-5-yl}-N-methyl-2-[4-(3,4-dichlorophenylamino)-piperid-1-yl]-acetamide, dihydrochloride], the IC50 was in the range of 0.5 to 3 nM. For the compound `CN(C(=O)CN1CCC(Nc2ccccc2)CC1)c1ccc2c(c1)nc(CCc1ccc(C(=N)N)cc1)n2C` [Example 108, N-{2-[2-(4-Amidinophenyl)-ethyl]-1-methyl-benzimidazol-5-yl}-N-methyl-2-[4-(phenylamino)-piperid-1-yl]-acetamide, dihydrochloride], the IC50 lay within 4 to 30 nM. As for “N-{2-[2-(4-Amidinophenyl)-ethyl]-1-methyl-benzimidazol-5- yl}-N-[ethanecarboxylic acid]-2-[4-(2-pyridylamino)-piperid- 1-yl]-acetamide, dihydrochloride [Example 54]”, the figure is 4 to 30 nM; as for “N-{2-[2-(4-Amidinophenyl)-ethyl]-1-methyl-benzimidazol-5- yl}-N-[naphth-1-ylmethyl]-N′-[4-(2-naphthylmethylamino)]- urea, hydrochloride [Example 80]”, 31 to 1000 nM.
